Results from patent US6407072B1, “Lysoganglioside derivatives” (Fidia S.p.A., priority 1988, dated 2002).

Legend:
[1] = system: Mouse neuroblastoma cells (N2A); experiment: MTT in N2A cells; format: cell-based
[2] = system: Mouse neuroblastoma cells (N2A); experiment: 3H Tdr in N2A cells; format: cell-based
PKC [3] = experiment: Translocation of PKC induced by glutamate: [3H]-phorbol ester binding on intact cells; format: cell-based, rat; settings: for inhibition of PKC translocation, cotreatment and prolonged incubation: cotreatment 35 minutes with glutamate, then prolonged exposure (35 minutes)
Method: (§1) 1.a. Primary cultures of cerebral granule cells from 8-day-old Sprague Dawley rats (Zivic Miller) [Gallo V. et al., Proc. Natl. Acad. Sci. USA 79, 7919-7923 (1982)]. These cultures contain >90% of granule cells, <5% of GABAergic neurons and <5% of glial cells [Vaccarino F. M. et al., J. Neurosci. 7, 65-76 (1987)]. The cells were used for the experiments on the 8th and 9th days of culture.
(§2) On the 8th and 9th days of culture, concentrations varying between 7 and 100 μM of the following substances are added: N-dichloro acetyl lyso GM1, N-monochloro acetyl lyso GM1, GT1b, GM1. More particularly, the monolayers of granule cells are preincubated with these compounds in Locke's solution (1 ml) for 120 minutes (or for periods of time varying between 0 and 120 minutes) at 37° C. Gangliosides and derivatives are previously dissolved and subsequently diluted, if necessary, in methanol: H2O/95:5. Aliquots of the solution are dried in a N2 current and gathered with a suitable volume of Locke's solution until the final concentration is reached.
1.d. Translocation of PKC induced by glutamate: assessment of [3H]-phorbol ester binding on intact cells.
The effects of binding of [3H]-phorbol ester are assessed under two different types of experimental conditions: […]
[…] After cotreatment the cells-are washed and [^3H]-PDBu binding is assessed in the presence of Mg^+2. Granule cells are grown on discs measuring 35 mm in diameter and then washed and incubated with Locke's solution containing 4-B-[^3H]-phorbol-12, 13-dibutyrate [^3H]-P(Bto)2, 12.5 Ci/mmol (1 Ci=37 GBq; New England Nuclear), in 0.1% fatty acid-free bovine albumin serum (Sigma Chemical Co.). […] The binding is constant for over one hour. After incubation the cells are washed 3 times with cold Locke's solution and suspended with NaOH 0.1M. The aliquots of suspension are used for protein determination [Lowry O. H. et al., J. Biol. Chem. 193, 256-275 (1951)]. Non-specific binding is assessed in the presence of 2 μM phorbol 12-tetradecanoate 13-acetate (PTA).

Granule cells = experiment: N2 anoxia in granule cells, viability by MTT; format: cell-based, rat; settings: for MTT O.D. (570-630): N2 anoxia in absence of Mg2+; for MTT O.D. (570-630) / MTT O.D. as % of Control (+ MG^2+): MTT after 24 hours; for MTT O.D. as % of Control (+ MG^2+): N2 anoxia; for protection against endogenous glutamate-induced neurotoxicity under anoxic conditions: anoxia in N2 chamber
Method: Pretreatment was performed with LIGA 20 and 21 for 10 minutes, and with GM1 for 60 minutes. The cells are washed with serum and placed in anoxic conditions in the absence of Mg^+2 for 5 hours and replaced in the culture medium. Cell viability was measured 24 hours after with MTT.
as §1
Effect of N-dichloro acetyl lyso GM1 following cell anoxia (in N2 chamber) on protection from endogenous glutamate-induced neurotoxicity. Cell viability is assessed by colorimetry after 24 hours (MTT stains only live cells).

PKC [4] = settings: exposure of cerebral granule cells; literature reports; cited from earlier work
cerebral granule cells [5] = settings: literature reports; cited from earlier work
[6] = system: Mouse neuroblastoma cells (N2A); experiment: Neuritogenic activity in N2A cells: morphology, % of cells with neurites; format: cell-based
Method: Mouse neuroblastoma cells (N2A) at the 180th passage are placed in wells at a concentration of 10,000 cells per well (COSTAR-24). The next day the medium was substituted with 350 μl of DMEM+P/G+10% FCS.
All compounds are dissolved in chloroform/methanol 2:1 dried in N2 current and resuspended in DMEM+P/G+10% FCS. The number of neurites is assessed 24 hours later.

cerebral granule cells [7] = experiment: Glutamate-induced neurotoxicity in primary cultures of cerebral granule cells (cell survival); format: cell-based, rat; settings: for protection of cells from neurotoxic effect of glutamate, cotreatment: cotreatment 15 minutes with glutamate 50 μM; for protection from neurotoxic effect, cotreatment and prolonged incubation: cotreatment 35 minutes with glutamate, then prolonged exposure (35 minutes); for prevention of glutamate-induced neurotoxicity: pretreatment for 2 hours; for concentration required for maximum protective effect: pretreatment; for reversal of neurotoxic effect of glutamate by post-treatment: post-treatment 20 minutes, after glutamate administered intermittently
Method: as §1, §2
1.c. Glutamate-induced neurotoxicity.
The neurotoxic effect of glutamate was assessed under various experimental conditions:
Influence of incubation time ([…]) of the substances before exposure to glutamate: intact cells are preincubated with N-dichloro acetyl lyso GM1, N-monochloro acetyl lyso GM1 (7 μM) and GT1b (60 μM) at 37° C. After removal of excess compound by washing, the cells are incubated with 50 μM of glutamate in the absence of Mg+2 for 15 minutes at room temperature after which the cells are washed three more times and then replaced in the medium. Cell survival is assessed after 24 hours by histochemical techniques, or after […] staining which gives green fluorescence to live cells and red to non-living cells.
Influence of the time interval between pre-treatment with ganglioside derivatives or gangliosides themselves and exposure to glutamate: intact granule cells are preincubated for 2 hours at 37° C. with N-dichloro acetyl lyso GM1 (7 μM) GT1b and GM1 (100 μM). Excess compound is removed by washing and the cells exposed to 50 μM of glutamate (in the absence of Mg^+2) for 15 minutes after various time intervals (1, 2, 4, 6, 12, 18, 24 and 48 hours).
Effect of simultaneous treatment with glutamate and gangliosides: intact granule cells are treated (15 and 35 minutes) with 50 μM of glutamate and the gangliosides N-dichloro acetyl lyso GM1 (7 μM), GT1b and GM1 (100 μM) . In the first type of experiment (cotreatment for 15 minutes) the excess compound is removed by washing, and then cell survival is assessed according to the described method. In the second type of experiment (cotreatment for […]) the cotreatment is prolonged for another 35 minutes of exposure to gangliosides.
Effect of N-dichloro acetyl lyso GM1 following intermittent exposure to glutamate: granule cells are exposed intermittently to glutamate and treated with N-dichloro acetyl lyso GM1 (7 μM) for 20 minutes (in the absence of Mg2+). The excess product is removed by washing.

new-born rat = experiment: NMDA-induced neurotoxicity in new-born rat (mortality); format: in vivo; settings: for mortality (deceased/treated) / relative mortality (% of treated): up to 5 days; for protection from mortality following i.c.v. injection of NMDA: s.c., 1 hour before and immediately after NMDA
Method: Newborn rats (7 days old) weighing about 13 g are injected with 25 nmol NMDA i.c.v. Under these conditions the excitotoxin induces a decrease of 28% in weight of the injected hemisphere and a mortality rate of 53.6%.
Administration of the compounds: injection method and parameters observed. […] The compounds were solubilized in PBS. The N-dichloro acetyl lyso GM1 and N-monochloro acetyl lyso GM1 derivatives were tested in comparison to magnesium sulfate, MK-801 (a non-competitive […] of the NMDA receptor) [G. McDonald et al., Eur. J. Pharmacol. 140: 153-157 (1987)] and kinurenic acid [P. Andiné, Neuro-science Letters, 90: 208-212 (1988)] which is capable of diminishing brain damage. Mortality was assessed 5 days after MNDA injection.

[8] = preincubated 2 hours at 100 μM, glutamate 50 μM
[9] = 200 nMoli/animal sc, 1 hr before and immediately after NMDA 25 nMoli i.c.v.
[10] = 75 nMoli/animal (2 mg/kg) i.p., 1 hr before and immediately after NMDA
[11] = cotreatment with glutamate 50 μM, 7 μM

| Molecule | MTT (48 hr) n = 3 ([1]; 1 × 10^−4 M) | ^3H Tdr. (48 hr) n = 3 ([2]; 1 × 10^−4 M) | inhibition of PKC translocation, cotreatment and prolonged incubation (PKC [3]; 100 μM) | translocation and activation of PKC induced by glutamate (PKC [4]) | protection from glutamate-induced cell damage (cerebral granule cells [5]) | Morphology (24 hr) % of cells with neurites ([6]; 1 × 10^−4 M) | protection of cells from neurotoxic effect of glutamate, cotreatment (cerebral granule cells [7]; 100 μM) | protection from neurotoxic effect, cotreatment and prolonged incubation (cerebral granule cells [7]; 100 μM) | persistence of protective effect on glutamate-induced neurotoxicity after removal of the medium (cerebral granule cells [7]; [8]) | mortality (deceased/treated) (new-born rat; [9]) | relative mortality (% of treated) (new-born rat; [9]) [%] | protection from mortality following i.c.v. injection of NMDA (new-born rat) | protection against endogenous glutamate-induced neurotoxicity under anoxic conditions (Granule cells) | MTT O.D. (570-630) (Granule cells; pretreated 5 μm, 10 min) [O.D.] | MTT O.D. as % of Control (+ MG^2+) (Granule cells; pretreated 5 μm, 10 min) [%] | concentration required for maximum protective effect (cerebral granule cells [7]; glutamate 50 μM) [µM] | also measured |
| --- | --- | --- | --- | --- | --- | --- | --- | --- | --- | --- | --- | --- | --- | --- | --- | --- | --- |
| monosialosyl-N-tetraglycosyl-ceramide [GM1, reference compound] | 0.259 ± 0.007 | 40834 ± 1885 | effective | inhibits | offer protection | 70-80% | is not | effective | no more than 1 hours | – | – | – | – | – | – | – | MTT O.D. (570-630) (Granule cells; pretreated 100 μM, 60 min): 0.160 ± 0.010 O.D.; MTT O.D. as % of Control (+ MG^2+) (Granule cells; pretreated 100 μM, 60 min): 110% |
| N′-monochloro acetyl lyso GM1 [LIGA 22] | – | – | – | – | – | <5% | – | – | – | – | – | – | – | – | – | – | – |
| CCCCCCCCCCCCC/C=C/[C@@H](O)[C@H](CO[C@@H]1O[C@H](CO)[C@@H](O[C@@H]2O[C@H](CO)[C@H](O[C@@H]3O[C@H](CO)[C@H](O)[C@H](O[C@@H]4O[C@H](CO)[C@H](O)[C@H](O)[C@H]4O)[C@H]3NC(C)=O)[C@H](O[C@]3(C(=O)O)C[C@H](O)[C@@H](NC(C)=O)[C@H]([C@H](O)[C@H](O)CO)O3)[C@H]2O)[C@H](O)[C@H]1O)NC(=O)CCl [LIGA 21, N-Monochloroacetyl Lyso GM1] | 0.158 ± 0.01 | 14256 ± 1594 | – | – | – | 80-90% | – | – | – | 0/8 | 0 | protected | active | 0.152 ± 0.013 | 105 | – | MTT (48 hr) n = 3 ([1]; 5 × 10^−5 M): 0.243 ± 0.008; MTT (48 hr) n = 3 ([1]; 5 × 10^−6 M): 0.324 ± 0.01; ^3H Tdr. (48 hr) n = 3 ([2]; 5 × 10^−5 M): 36016 ± 5030; ^3H Tdr. (48 hr) n = 3 ([2]; 5 × 10^−6 M): 43035 ± 487; Morphology (24 hr) % of cells with neurites ([6]; 5 × 10^−5 M): 80-90%; Morphology (24 hr) % of cells with neurites ([6]; 5 × 10^−6 M): <5%; concentration range of protection (cerebral granule cells [7]; glutamate-induced neurotoxicity): ~10 µM |
| C[C@]12N[C@H](Cc3ccccc31)c1ccccc12 [MK 801, reference compound] | – | – | – | – | – | – | – | – | – | – | – | – | – | – | – | – | mortality (deceased/treated) (new-born rat; [10]): 6/16; relative mortality (% of treated) (new-born rat; [10]): 37% |
| trisialosyl-N-tetraglycosylceramide [GT1b, reference compound] | – | – | effective | inhibits | offer protection | – | is not | effective | 4 h | – | – | – | – | – | – | 60 | incubation time after which protection is significant (cerebral granule cells [7]; 60 μM, glutamate 50 μM): 60 min; prevention of glutamate-induced neurotoxicity (cerebral granule cells [7]; 60 μM, glutamate 50 μM): almost totally prevents |
| CCCCCCCCCCCCCC=CC(O)C(COC1OC(CO)C(OC2OC(CO)C(OC3OC(CO)C(O)C(OC4OC(CO)C(O)C(O)C4O)C3NC(C)=O)C(OC3(C(=O)O)CC(O)C(NC(C)=O)C(C(O)C(O)CO)O3)C2O)C(O)C1O)NC(=O)C(Cl)Cl (stereo not drawn) [LIGA 20, N-dichloroacetyl Lyso GM1] | – | – | – | – | – | – | – | – | – | 1/8 | 12.5 | protected | active | 0.163 ± 0.012 | 112 | 7 | inhibition of PKC translocation, cotreatment and prolonged incubation (PKC [3]; 7 μM): effective; inhibition of PKC translocation induced by glutamate, cotreatment (PKC [3]; [11]): inhibits; time of maximum activity in inhibiting PKC translocation (PKC [3]; [11]): 30 min; concentration for maximum effect, times less than that of GT1b (cerebral granule cells [7]; 7 μM vs 60 μM): more than 8 times; preincubation time after which protection is evident (cerebral granule cells [7]; 7 μM, glutamate 50 μM): 5 min; protection of cells from neurotoxic effect of glutamate, cotreatment (cerebral granule cells [7]; 7 μM): effective; protection from neurotoxic effect, cotreatment and prolonged incubation (cerebral granule cells [7]; 7 μM): effective; reversal of neurotoxic effect of glutamate by post-treatment (cerebral granule cells [7]; 7 μM): prevents; reversal of neurotoxic effect of glutamate by post-treatment (cerebral granule cells [7]; 7 μM, listed as N-dichloro acetyl lyso GM1): active; persistence of protective effect on glutamate-induced neurotoxicity after removal of the medium (cerebral granule cells [7]; preincubated 2 hours at 7 μM, glutamate 50 μM): at least 24 hours; prevention of glutamate-induced neurotoxicity (cerebral granule cells [7]; 7 μM, glutamate 50 μM): almost totally prevents |
